Data: patent US20200069679A1, “NINTEDANIB FOR USE IN METHODS FOR THE TREATMENT OF INTERSTITIAL LUNG DISEASES BY COADMINISTRATION WITH OLADATEROL” (Boehringer Ingelheim International GmbH, priority 2016, published 2020)

Tested on: TGF-β induced ET-1 release in cultured human lung fibroblasts (IPF-HLF)
Assay: TGF-β induced ET-1 release in cultured human lung fibroblasts from IPF patients (ELISA of supernatant)
Format: cell-based
Settings: IPF-HLF stimulated with TGF-β for 48 h, n=6 incubations, normalized to unstimulated (=100% inhibition) and TGF-β-stimulated (=0% inhibition) ET-1 levels
Protocol: The principle of the assay is the incubation of IPF-HLF with transforming growth factor beta (TGF-β) for 48 h. In the cell culture supernatant the concentration of the pro-fibrotic mediator endothelin-1 (ET-1) was determined by enzyme linked immune sorbent assay.
HLFs from 5 different patients with idiopathic pulmonary fibrosis (IPF) were used to do repeated measurements. For the control groups without TGF-β stimulation, data sets from 11 incubations were included and for TGF-β-stimulated fibroblasts data sets from 12 incubations were included. For all olodaterol and/or nintedanib-treated groups, n=6 incubations were conducted. The experiments were conducted in the presence of nintedanib at 30 nM concentration and/or olodaterol at 1 pM (FIG. 1), 10 pM (FIG. 2) and 100 pM (FIG. 3) concentrations, respectively.

In the case of `COc1ccc(CC(C)(C)NC[C@H](O)c2cc(O)cc3c2OCC(=O)N3)cc1` [olodaterol], the “reduction of ET-1 release” value (olodaterol at 1-100 pM) was 1%-47%.
`COC(=O)c1ccc2c(c1)NC(=O)/C2=C(\Nc1ccc(N(C)C(=O)CN2CCN(C)CC2)cc1)c1ccccc1` [nintedanib] was tested, and the “reduction of ET-1 release” value (nintedanib at 30 nM) was 7%.
